Experimental data published in patent US20230129364A1, “PYRROLIDINE DERIVATIVE, AND PHARMACEUTICAL COMPOSITION FOR PREVENTING OR TREATING BETA-AMYLOID OR TAU PROTEIN-ASSOCIATED DISEASES CONTAINING SAME” (YONSEI UNIVERSITY, UNIVERSITY - INDUSTRY FOUNDATION (UIF), priority 2019, published 2023).

Key:
Assay type in all cases: biochemical
[1] = target: T1, Tau protein (wild-type K18) (Homo sapiens, UniProt P10636); test: Tau protein aggregation inhibition test (thioflavin T assay); details: heparin/DTT-induced aggregation, 37° C. 5 days, ThT fluorescence vs tau-only control = 100%
T1 construct: Tau protein (wild-type K18)
Procedure: (§1) Tau protein (wild-type K18) was dissolved in phosphate-buffered saline (PBS, pH 7.4) at a concentration of 1 mg/mL to prepare a tau protein solution. In order to induce aggregation of tau proteins, 0.1 mg/mL of heparin and 100 μM dithiothreitol (DTT) were added to 1 mg/mL of the tau protein solution, followed by incubation at 37° C. for 5 days. At this time, the result was mixed with each test compound (50, 500 μM) such that the final concentration reached 0.5 mg/mL, followed by further incubation.
The inhibitory effect of each compound against tau aggregation was measured based on the intensity of fluorescence by thioflavin T (ThT) assay (see Example 2). More specifically, 25 μL of the reaction solution was charged in each well of a 96-well plate for fluorescence analysis, and 75 μL of the prepared thioflavin-T solution was then charged in each well. The reaction was allowed to proceed at room temperature in a dark laboratory for 5 minutes, and then fluorescence values were measured at an excitation wavelength of 450 nm and an emission wavelength of 485 nm using a multi-mode microplate reader.
The ratio of the fluorescence value measured in the group obtained by treating with each test compound to 100% of the fluorescence value of the group (control group) obtained by treating only with tau proteins and inducing aggregation for 5 days is set forth in Table 5 below: […]

[2] = target: T2, aggregated beta-amyloid; human Aβ 1-42 (UniProtKB-P05067, a.a. 672-713) (Homo sapiens, UniProt P05067); test: Beta-amyloid aggregate degradation test (thioflavin T assay); details: pre-aggregated Aβ, further 3 days at 37° C., ThT fluorescence vs control = 100%
T2 construct: UniProtKB-P05067, a.a; 672-713
Procedure: Aβ (beta-amyloid; human A3 1-42 monomer (UniProtKB-P05067, a.a. 672-713)) was dissolved at a concentration of 10 mM in dimethyl sulfoxide (DMSO), and the resulting solution was diluted to 250 μM using distilled water, and then incubated at 37° C. for 3 days to induce aggregation. The aggregated beta-amyloid was added with each test compound in an amount of 50 or 500 μM such that the final concentration reached 25 μM, and was further cultured at 37° C. for 3 days to induce reaction. The aggregate degradation effect of each test compound was measured by thioflavin T (ThT) assay (see Example 2). Specifically, 25 μL of the reaction solution was charged in each well of a 96-well plate for fluorescence analysis and 75 μL of the prepared thioflavin-T solution was charged in each well. The reaction was allowed to proceed at room temperature in a dark laboratory for 5 minutes and then fluorescence values were measured at an excitation wavelength of 450 nm and an emission wavelength of 485 nm using a multi-mode microplate reader. The ratio of the fluorescence value measured in the group obtained by treating with each test compound to 100% of the fluorescence value of the group (control group) obtained by treating only with beta-amyloids and inducing aggregation for 3 days is set forth in Table 4 below: […]

[3] = target: T3, aggregated tau protein (wild-type K18) (Homo sapiens, UniProt P10636); test: Tau protein aggregate degradation test (thioflavin T assay); details: pre-aggregated tau, further 5 days at 37° C., ThT fluorescence vs control = 100%
T3 construct: Tau protein (wild-type K18)
Procedure: as §1, with “solution.” for “solution. In order to induce aggregation of tau proteins,”, “days to induce tau protein aggregation. The aggregated tau protein” for “days. At this time, the result”, “in an amount of 50 or” for “(50,”, “μM” for “μM)”, “incubation at 37° C. for 5 days to induce reaction.” for “incubation.”
The degradation effect of each compound on the tau aggregates was measured by thioflavin T (ThT) assay (see Example 2). More specifically, 25 μL of the reaction solution was charged in each well of a 96-well plate for fluorescence analysis and 75 μL of the prepared thioflavin-T solution was charged in each well. The reaction was allowed to proceed at room temperature in a dark laboratory for 5 minutes and then fluorescence values were measured at an excitation wavelength of 450 nm and an emission wavelength of 485 nm using a multi-mode microplate reader.
The ratio of the fluorescence value measured in the group obtained by treating with each test compound to 100% of the fluorescence value of the group (control group) obtained by treating only with tau proteins and inducing aggregation for 5 days is set forth in Table 6 below: […]

T1 sequence (P10636 561-685 limits assumed): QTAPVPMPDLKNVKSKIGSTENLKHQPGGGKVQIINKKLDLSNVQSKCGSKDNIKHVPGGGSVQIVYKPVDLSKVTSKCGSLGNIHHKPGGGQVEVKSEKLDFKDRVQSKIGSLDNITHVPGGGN
T3 sequence (P10636 561-685 limits assumed): as above
T2 sequence (P05067 672-713): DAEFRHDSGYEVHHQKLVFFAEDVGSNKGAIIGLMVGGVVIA

Row | SMILES | Tau aggregation remaining (ThT fluorescence, % of tau-only control) ([1]; 50 uM test compound) | Tau aggregation remaining (ThT fluorescence, % of tau-only control) ([1]; 500 uM test compound) | Beta-amyloid aggregate degradation activity (% of control) ([2]; 500 uM test compound) | ThT fluorescence remaining (% of control) ([3]; 50 uM test compound) | ThT fluorescence remaining (% of control) ([3]; 500 uM test compound) | Beta-amyloid aggregate degradation activity (% of control) ([2]; 50 uM test compound)
1 | O=C1NC(=O)/C(=C/c2c[nH]c3ncccc23)S1 [DN204286, (Z)-5-((1H-pyrrolo[2,3-b]pyridin-3-yl)methylene)thiazolidine-2,4-dione] | 56.04 % of control | 82.71 % of control | 94.23 % of control |  |  | 
2 | O=C1NC(=O)/C(=C/c2c[nH]c3cccnc23)S1 [DN204289, (Z)-5-((1H-pyrrolo[3,2-b]pyridin-3-yl)methylene)thiazolidine-2,4-dione] | 60.71 % of control | 46.16 % of control | 54.07 % of control | 57.57 % of control | 52.83 % of control | 83.66 % of control
3 | O=C1NC(=O)C(Cc2cnc3ccccc3c2)S1 (centres unmarked) [DN204294, 5-(quinolin-3-ylmethyl)thiazolidine-2,4-dione] | 85.91 % of control |  | 74.80 % of control |  |  | 88.64 % of control
4 | O=C1NC(=S)S/C1=C\c1c[nH]c2ccccc12 [DN204296, (Z)-5-((1H-indol-3-yl)methylene)-2-thioxothiazolidin-4-one] | 13.243 % of control | 4.984 % of control | 17.28 % of control | 30.26 % of control | 16.48 % of control | 68.90 % of control
5 | O=C1NC(=S)S/C1=C\c1cc[nH]c1 [DN204297, (Z)-5-((1H-pyrrol-3-yl)methylene)-2-thioxothiazolidin-4-one] | 48.721 % of control | 16.233 % of control | 28.19 % of control | 52.16 % of control | 17.97 % of control | 86.80 % of control
6 | O=C1NC(=S)S/C1=C\c1ccoc1 [DN204298, (Z)-5-(furan-3-ylmethylene)-2-thioxothiazolidin-4-one] | 71.163 % of control | 33.817 % of control | 7.79 % of control | 61.36 % of control | 29.73 % of control | 59.37 % of control
7 | O=C1NC(=S)S/C1=C\c1ccsc1 [DN204299, (Z)-5-(thiophen-3-ylmethylene)-2-thioxothiazolidin-4-one] | 60.521 % of control | 33.932 % of control | 80.07 % of control | 72.21 % of control | 45.09 % of control | 
